One test concerns the target T1, recombinant human PKM2 (Homo sapiens, UniProt P14618).
T1 construct: His (N); purchased R&D Systems
As to the kind of experiment: Human PKM2 activation assay (Kinase-Glo Plus luminescent detection of generated ATP). Format: biochemical. The following applies: for Emax: percentage activation normalised to DMSO vehicle (LOW) and 5 μM TEPP-46 (HIGH), read-out: hPKM2 Emax; for EC50: recombinant human PKM2 activation, 4-parameter logistic fit, read-out: hPKM2 EC50. The gist of the method: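 N-His-tagged recombinant hPKM2 ([…]) with PEP and ADP was incubated with compound for 60 min at 26 °C, shaking, in 50 mM imidazole, 50 mM KCl, 7 mM MgCl2, 0.01% Tween20, 0.05% BSA, pH 7.2. ATP produced was read by Kinase-Glo Plus luminescence after 15 min.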
For orientation: Kinase-Glo reads ATP consumption through a luciferase reaction.

A further test concerns A549 cells. As to the kind of experiment: A549 cell proliferation in low-serine medium (CellTiter-Glo 2.0 viable cell number). The following applies: Homo sapiens, 72 h, 3 days, Assay Medium with 20 μM L-serine. Format: cell-based. On the procedure:
The effect of compounds of Formula (Ia) on A549 cell proliferation in low-serine medium was assessed using a luminescence assay of viable cell number (CellTiter-Glo® 2.0, Promega) duplexed with a fluorescent cytotoxicity assessment (CelITox™ Green, Promega). Cell culture reagents were from ThermoFisher unless specified otherwise. Assay reagents were from Sigma-Aldrich unless specified otherwise. Test Compounds were prepared as 10 mM DMSO stocks and dilution series prepared in DMSO for direct dilution into culture medium.
Cells were passaged every 3-4 days at 80-90% confluence. The cell monolayer was washed twice with room-temperature Ca^2+/Mg-free PBS and 4 ml room-temperature trypsin-EDTA added to the flask. After 5 minutes' incubation (37° C., 5% CO2) to detach cells, trypsin was quenched with 13 ml warmed complete growth medium and the cells harvested and diluted to 2.4×10^4 cells/ml for dispensing into 384-well clear-bottom black-walled plates (600 cells/well).
Following overnight incubation, growth medium was aspirated from each well and the cells washed twice with Assay Medium comprising Basal Medium Eagle supplemented with 3% heat-inactivated dialysed FBS plus 2 mM L-glutamine plus 20 μM L-serine (Sigma-Aldrich). After aspiration of the final wash medium, Assay Medium containing Test Compound was added to each well. DMSO vehicle controls were included on each plate.
Cells were incubated for 3 days in a humidified incubator (37° C., 5% CO2) at which point CelITox™ Green and CellTiter-Glo® reagents were prepared according to the manufacturer's instructions. Triton-X was added to HIGH wells for cytotoxicity determination and the plate incubated for 30 minutes (20° C., ambient humidity and pCO2). CelITox™ Green reagent was added to each well and the plate covered, placed on an orbital shaker @450 rpm for 2 minutes, and incubated in the dark for 15 minutes (20° C., ambient humidity and pCO2). Endpoint fluorescence was measured using a plate reader (PHERAstar® FSX, BMG Labtech).
Following cytotoxicity determination, CellTiter-Glo® reagent was added to each well and the plate placed on an orbital shaker @450 rpm for 2 minutes to lyse cells. Plates were incubated in the dark for 15-30 minutes (20° C., ambient humidity and pCO2) prior to endpoint luminescence measurement (PHERAstar® FSX, BMG Labtech).
Proliferation was calculated by normalizing luminescence signals to LOW controls obtained from a parallel plate processed at the time of Test Compound challenge and HIGH (DMSO vehicle) wells from the compound plate. IC50 values were determined from a 4-parameter logistic fit of compound concentration-response curves.

These results are taken from US20260152487A1 (Sitryx Therapeutics Limited, priority 2021, published 2026).

Molecules are shown by their SMILES.

T1 sequence (P14618 2-531 limits assumed): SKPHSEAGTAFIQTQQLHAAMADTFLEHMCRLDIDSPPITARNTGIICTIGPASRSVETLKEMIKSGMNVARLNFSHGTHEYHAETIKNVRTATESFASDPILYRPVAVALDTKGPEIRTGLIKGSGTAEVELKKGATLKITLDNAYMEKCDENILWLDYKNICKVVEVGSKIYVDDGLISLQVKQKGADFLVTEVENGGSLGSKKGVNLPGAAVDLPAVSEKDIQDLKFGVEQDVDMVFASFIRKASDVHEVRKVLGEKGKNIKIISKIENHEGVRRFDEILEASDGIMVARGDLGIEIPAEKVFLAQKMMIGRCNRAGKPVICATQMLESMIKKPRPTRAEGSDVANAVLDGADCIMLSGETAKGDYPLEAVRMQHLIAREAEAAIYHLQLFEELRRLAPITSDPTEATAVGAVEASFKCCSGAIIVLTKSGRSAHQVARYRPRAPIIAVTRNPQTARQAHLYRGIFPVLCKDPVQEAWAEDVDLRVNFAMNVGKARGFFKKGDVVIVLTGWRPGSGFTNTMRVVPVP

One may read the Emax as the greatest response seen or fitted, relative to the assay's reference. As a reminder, the EC50 is the concentration at which the effect is half-maximal. Broadly, the IC50 is the point on the concentration scale where inhibition reaches its midpoint. Lower therefore signals inhibition by little substance. As for `O=c1c2ccc(S(=O)(=O)c3ccccc3)cc2cnn1Cc1ccc2c(c1)OCO2` [Example 57, 2-(benzo[d][1,3]dioxol-5-ylmethyl)-6-(phenylsulfonyl)phthalazin-1(2H)-one], on recombinant human PKM2, the Emax came out at 109% and the EC50 stood at 55 nM. The compound also returned an IC50 in the test on A549 cells of 2.3 nM.
On the same counts, the results for `COc1ccc(S(=O)(=O)c2ccc3c(=O)n(Cc4ccc5c(c4)CCO5)ncc3c2)cc1` [Example 47, 2-((2,3-dihydrobenzofuran-5-yl)methyl)-6-((4-methoxyphenyl)sulfonyl)phthalazin-1(2H)-one] are 87.9%, 25.5 nM and 0.5 nM.
For `COc1ccc(S(=O)(=O)c2ccc3c(=O)n(Cc4ccc(Cl)cc4F)ncc3c2)cc1` [Example 46, 2-(4-chloro-2-fluorobenzyl)-6-((4-methoxyphenyl)sulfonyl)phthalazin-1(2H)-one], at recombinant human PKM2, the Emax was determined as 76% and the EC50 was 234 nM. Moreover, 4.8 nM corresponded to half-maximal inhibition in the test with A549 cells (IC50).
For the compound `O=c1c2ccc(S(=O)(=O)c3ccccc3)cc2cnn1Cc1ccccc1F` [Example 32, 2-(2-fluorobenzyl)-6-(phenylsulfonyl)phthalazin-1(2H)-one], at recombinant human PKM2, the Emax was 99.6% and the EC50 was found to be 163 nM. Besides, in the test on A549 cells, the IC50 is 3.2 nM.
Turning to `COc1ccc(S(=O)(=O)c2ccc3c(=O)n(Cc4cc(C(C)C)cnc4O)ncc3c2)cc1` [Example 101, 2-((2-hydroxy-5-isopropylpyridin-3-yl)methyl)-6-(4-methoxyphenylsulfonyl)phthalazin-1(2H)-one], at recombinant human PKM2, the Emax stood at 74.5% and the EC50 turned out to be 240 nM. Besides, it took 354 nM to reach half-maximal inhibition in the test with A549 cells (IC50).
On the same counts, the results for `Cc1ncc(Cn2ncc3cc(S(=O)(=O)c4ccccc4)ccc3c2=O)s1` [Example 30, 2-((2-methylthiazol-5-yl)methyl)-6-(phenylsulfonyl)phthalazin-1(2H)-one] are 99.4%, 739 nM and 15.8 nM.
`COc1cccc(Cn2ncc3cc(S(=O)(=O)c4ccccc4)ccc3c2=O)n1` [Example 37, 2-((6-methoxypyridin-2-yl)methyl)-6-(phenylsulfonyl)phthalazin-1(2H)-one]: on recombinant human PKM2, the Emax came out at 118% and the EC50 came out at 133 nM. Half-maximal inhibition in the test on A549 cells (IC50) required 3.6 nM.
For `COc1ccc(S(=O)(=O)c2ccc3c(=O)n(Cc4c(Cl)ccnc4O)ncc3c2)cc1` [Example 102, 2-((4-chloro-2-hydroxypyridin-3-yl)methyl)-6-(4-methoxyphenylsulfonyl) phthalazin-1(2H)-one], in that order: 94.9%, 69.9 nM and 2.2 nM.
On the same counts, the results for `COc1ccc(S(=O)(=O)c2ccc3c(=O)n(Cc4ccccc4N)ncc3c2)cc1` [Example 43, 2-(2-aminobenzyl)-6-((4-methoxyphenyl)sulfonyl)phthalazin-1(2H)-one] are 111%, 42.5 nM and 1.7 nM.
With `Cn1ncc2cc(Cn3ncc4cc(S(=O)(=O)c5ccccc5)ccc4c3=O)ccc21` [Example 36, 2-((1-methyl-1H-indazol-5-yl)methyl)-6-(phenylsulfonyl)phthalazin-1(2H)-], on recombinant human PKM2, the Emax stood at 70% and the EC50 worked out at 207 nM. Further, in the test with A549 cells, inhibition was half-maximal at 20.6 nM (IC50).
For `COc1ccc(S(=O)(=O)c2ccc3c(=O)n(Cc4c(F)cc(OC)cc4F)ncc3c2)cc1` [Example 53, 2-(2,6-difluoro-4-methoxybenzyl)-6-((4-methoxyphenyl)sulfonyl)phthalazin-1(2H)-one], in that order: 89.2%, 59.1 nM and 5.7 nM.
Turning to `O=c1c2ccc(S(=O)(=O)c3ccccc3)cc2cnn1Cc1ccccc1CO` [Example 20, 2-(2-(hydroxymethyl)benzyl)-6-(phenylsulfonyl)phthalazin-1(2H)-one], at recombinant human PKM2, the Emax amounted to 90.7% and the EC50 is 249 nM. The IC50 in the test on A549 cells is 6.4 nM.
For `COc1ccc(S(=O)(=O)c2ccc3c(=O)n(Cc4ccccc4)ncc3c2)cc1` [Example 50, 2-benzyl-6-((4-methoxyphenyl)sulfonyl)phthalazin-1(2H)-one], in that order: 97.5%, 70.6 nM and 3.1 nM.
For `COCC(c1ccc(OC)nc1)n1ncc2cc(S(=O)(=O)c3ccccc3)ccc2c1=O` (stereo not drawn) [Example 8, 2-(2-methoxy-1-(6-methoxypyridin-3-yl)ethyl)-6-(phenylsulfonyl)phthalazin-1(2H)-one], in that order: 80.8%, 931 nM and 218 nM.
With `O=c1c2ccc(S(=O)(=O)c3ccccc3)cc2cnn1Cc1ccccc1` [Example 71, 2-benzyl-6-(phenylsulfonyl)phthalazin-1(2H)-one], at recombinant human PKM2, the Emax is 102% and the EC50 came out at 115 nM. Further, in the test with A549 cells, 14.1 nM corresponded to half-maximal inhibition (IC50).
On the same counts, the results for `O=c1c2ccc(S(=O)(=O)c3ccccc3)cc2cnn1Cc1cccc2nccn12` [Example 34, 2-(imidazo[1,2-a]pyridin-5-ylmethyl)-6-(phenylsulfonyl)phthalazin-1(2H)-one] are 79%, 506 nM and 64.8 nM.
For `COCC(c1ccccc1)n1ncc2cc(S(=O)(=O)c3ccc(OC)cc3)ccc2c1=O` (stereo not drawn) [Example 82, 2-(2-methoxy-1-phenylethyl)-6-((4-methoxyphenyl)sulfonyl)phthalazin-1(2H)-one], in that order: 87.4%, 80.9 nM and 3.5 nM.
With `Cn1ncc2ccc(Cn3ncc4cc(S(=O)(=O)c5ccccc5)ccc4c3=O)cc21` [Example 39, 2-((1-methyl-1H-indazol-6-yl)methyl)-6-(phenylsulfonyl)phthalazin-1(2H)-one], on recombinant human PKM2, the Emax is 71.9% and the EC50 was 150 nM. In the test on A549 cells, this compound showed an IC50 of 7.4 nM.
On the same counts, the results for `COc1ccc(S(=O)(=O)c2ccc3c(=O)n(Cc4n[nH]c5ccccc45)ncc3c2)cc1` [Example 48, 2-((1H-indazol-3-yl)methyl)-6-((4-methoxyphenyl)sulfonyl)phthalazin-1(2H)-one] are 85.8%, 55.2 nM and 1.6 nM.
On the same counts, the results for `NC(=O)c1ccccc1Cn1ncc2cc(S(=O)(=O)c3ccccc3)ccc2c1=O` [Example 66, 2-((1-oxo-6-(phenylsulfonyl)phthalazin-2(1H)-yl)methyl)benzamide] are 88.5%, 115 nM and 4.3 nM.
Regarding `COc1cncc(Cn2ncc3cc(S(=O)(=O)c4ccccc4)ccc3c2=O)c1` [Example 31, 2-((5-methoxypyridin-3-yl)methyl)-6-(phenylsulfonyl)phthalazin-1(2H)-one], on recombinant human PKM2, the Emax stood at 74.9% and the EC50 was found to be 809 nM. For the same compound, half-maximal inhibition in the test with A549 cells (IC50) required 42 nM.
Regarding `COc1ccc(S(=O)(=O)c2ccc3c(=O)n(Cc4cccn(C)c4=O)ncc3c2)cc1` [Example 4, 6-((4-methoxyphenyl)sulfonyl)-2-((1-methyl-2-oxo-1,2-dihydropyridin-3-yl)methyl)phthalazin-1(2H)-one], on recombinant human PKM2, the Emax was determined as 106% and the concentration for a half-maximal effect (EC50) was 53.9 nM. Further, 0.7 nM corresponded to half-maximal inhibition with A549 cells (IC50).
As to `O=c1c2ccc(S(=O)(=O)c3ccccc3)cc2cnn1Cc1ccn(CCO)n1` [Example 10, 2-((1-(2-hydroxyethyl)-1H-pyrazol-3-yl)methyl)-6-(phenylsulfonyl)phthalazin-1(2H)-one], on recombinant human PKM2, the Emax was determined as 98.8% and the EC50 turned out to be 166 nM. Further, 7.8 nM corresponded to half-maximal inhibition in the test with A549 cells (IC50).
On the same counts, the results for `COc1ccc(S(=O)(=O)c2ccc3c(=O)n(Cc4c(C)ccnc4O)ncc3c2)cc1` [Example 99, 2-((2-hydroxy-4-methylpyridin-3-yl)methyl)-6-(4-methoxyphenylsulfonyl)phthalazin-1(2H)-one] are 107%, 138 nM and 4.6 nM.
